Results from US10016406B2, “Indazole inhibitors of the WNT signal pathway and therapeutic uses thereof” (Samumed, LLC, priority 2009, dated 2018).

These molecules were tested on Wnt (assay: Wnt reporter screening assay: SW480 cells stably transduced with SP5 promoter-firefly luciferase lentiviral construct). Settings: Homo sapiens, SW480 colon cancer cells, 24 h after compound addition, normalized to DMSO, read-out: Wnt inhibition, IC50.
Type: cell-based
Excerpt: Another screening assay for Wnt activity is described as follows. Reporter cell lines can be generated by stably transducing cells of cancer cell lines (e.g., colon cancer) with a lentiviral construct that include a wnt-responsive promoter driving expression of the firefly luciferase gene.
Lentiviral constructs can be made in which the SP5 promoter, a promoter having eight TCF/LEF binding sites derived from the SP5 promoter, is linked upstream of the firefly luciferase gene. The lentiviral constructs can also include a hygromycin resistance gene as a selectable marker. The SP5 promoter construct can be used to transduce SW480 cells, a colon cancer cell line having a mutated APC gene that generates a truncated APC protein, leading to de-regulated accumulation of β-catenin.
Cultured SW480 cells bearing a reporter construct can be distributed at approximately 10,000 cells per well into 384 well multiwell plates. Compounds from a small molecule compound library can then be added to the wells in half-log dilutions using a three micromolar top concentration. A series of control wells for each cell type receive only buffer and compound solvent. Twenty-four hours after the addition of compound, reporter activity for luciferases can be assayed, for example, by addition of the BrightGlo luminescence reagent (Promega) and the Victor3 plate reader (Perkin Elmer). Readings can be normalized to DMSO only treated cells, and normalized activities can then be used in the IC50 calculations.
For `CCC(=O)Nc1cncc(-c2ccc3[nH]nc(-c4nc5c(-c6cccnc6)cncc5[nH]4)c3c2)c1` [Compound 4, N-(5-(3-(7-(pyridin-3-yl)-3H-imidazo[4,5-c]pyridin-2-yl)-1H-indazol-5-yl)pyridin-3-yl)propionamide], the IC50 was 29 to 50 nM. Work on `CC(C)CC(=O)Nc1cncc(-c2ccc3[nH]nc(-c4nc5c(-c6cccnc6)cncc5[nH]4)c3c2)c1` [Compound 15, 3-methyl-N-(5-(3-(7-(pyridin-3-yl)-3H-imidazo[4,5-c]pyridin-2-yl)-1H-indazol-5-yl)pyridin-3-yl)butanamide] yielded an IC50 of 5.6 nM. With `CC(C)C(=O)Nc1cncc(-c2ccc3[nH]nc(-c4nc5c(-c6cccnc6)cncc5[nH]4)c3c2)c1` [Compound 11, N-(5-(3-(7-(pyridin-3-yl)-3H-imidazo[4,5-c]pyridin-2-yl)-1H-indazol-5-yl)pyridin-3-yl)isobutyramide] the IC50 was 4 nM. In the case of `CCCC(=O)Nc1cncc(-c2ccc3[nH]nc(-c4nc5c(-c6cccnc6)cncc5[nH]4)c3c2)c1` [Compound 20, N-(5-(3-(7-(pyridin-3-yl)-3H-imidazo[4,5-c]pyridin-2-yl)-1H-indazol-5-yl)pyridin-3-yl)butyramide], the IC50 is reported as 63 nM. For `O=C(Nc1cncc(-c2ccc3[nH]nc(-c4nc5c(-c6cccnc6)cncc5[nH]4)c3c2)c1)C1CCCCC1` [Compound 19, N-(5-(3-(7-(pyridin-3-yl)-3H-imidazo[4,5-c]pyridin-2-yl)-1H-indazol-5-yl)pyridin-3-yl)cyclohexanecarboxamide], the IC50 was 86 to 206 nM. `O=C(NCC1CC1)c1cncc(-c2ccc3[nH]nc(-c4nc5c(-c6cccnc6)cncc5[nH]4)c3c2)c1` [Compound 3, N-(cyclopropylmethyl)-5-(3-(7-(pyridin-3-yl)-3H-imidazo[4,5-c]pyridin-2-yl)-1H-indazol-5-yl)nicotinamide] gave an IC50 of over 10000 nM. `O=C(Nc1cncc(-c2ccc3[nH]nc(-c4nc5c(-c6cccnc6)cncc5[nH]4)c3c2)c1)C1CCC1` [Compound 21, N-(5-(3-(7-(pyridin-3-yl)-3H-imidazo[4,5-c]pyridin-2-yl)-1H-indazol-5-yl)pyridin-3-yl)cyclobutanecarboxamide] was tested, and the IC50 was 29 nM. `O=C(Nc1cncc(-c2ccc3[nH]nc(-c4nc5c(-c6cccnc6)cncc5[nH]4)c3c2)c1)C1CC1` [Compound 12, N-(5-(3-(7-(pyridin-3-yl)-3H-imidazo[4,5-c]pyridin-2-yl)-1H-indazol-5-yl)pyridin-3-yl)cyclopropanecarboxamide] gave an IC50 of 26 to 35 nM. `O=C(NCC1CCCCC1)c1cncc(-c2ccc3[nH]nc(-c4nc5ccncc5[nH]4)c3c2)c1` [Compound 2, 5-(3-(3H-imidazo[4,5-c]pyridin-2-yl)-1H-indazol-5-yl)-N-(cyclohexylmethyl)nicotinamide] gave an IC50 of over 10000 nM. `CCCCC(=O)Nc1cncc(-c2ccc3[nH]nc(-c4nc5c(-c6cccnc6)cncc5[nH]4)c3c2)c1` [Compound 23, N-(5-(3-(7-(pyridin-3-yl)-3H-imidazo[4,5-c]pyridin-2-yl)-1H-indazol-5-yl)pyridin-3-yl)pentanamide] was tested, and the IC50 was 34 to 64 nM. For `CC(C)(C)C(=O)Nc1cncc(-c2ccc3[nH]nc(-c4nc5c(-c6cccnc6)cncc5[nH]4)c3c2)c1` [Compound 17, N-(5-(3-(7-(pyridin-3-yl)-3H-imidazo[4,5-c]pyridin-2-yl)-1H-indazol-5-yl)pyridin-3-yl)pivalamide], the IC50 was 32 to 50 nM. `O=C(NC1CCNCC1)c1cncc(-c2ccc3[nH]nc(-c4nc5ccncc5[nH]4)c3c2)c1` [Compound 1, 5-(3-(3H-imidazo[4,5-c]pyridin-2-yl)-1H-indazol-5-yl)-N-(piperidin-4-yl)nicotinamide] gave an IC50 of over 10000 nM. `O=C(Nc1cncc(-c2ccc3[nH]nc(-c4nc5c(-c6cccnc6)cncc5[nH]4)c3c2)c1)c1ccccc1` [Compound 16, N-(5-(3-(7-(pyridin-3-yl)-3H-imidazo[4,5-c]pyridin-2-yl)-1H-indazol-5-yl)pyridin-3-yl)benzamide] gave an IC50 of 380 to 1170 nM. `CC(C)(C)CC(=O)Nc1cncc(-c2ccc3[nH]nc(-c4nc5c(-c6cccnc6)cncc5[nH]4)c3c2)c1` [Compound 18, 3,3-dimethyl-N-(5-(3-(7-(pyridin-3-yl)-3H-imidazo[4,5-c]pyridin-2-yl)-1H-indazol-5-yl)pyridin-3-yl)butanamide] was tested, and the IC50 was 21 to 39 nM.
